Measurements: the NIST ThermoML archive (doi:10.1016/j.jct.2013.04.017)
Numbers after ± are expanded uncertainties.

Legend:
[1] = 313.15 K; 101 kPa; Liquid; Sing-around technique in a fixed-path interferometer
[2] = mn = molality of the nth substance listed, in mol/kg; details: 313.15 K; 101 kPa; Liquid; fixed-path interferometer; m2 = 0

Row | speed of sound [1] | speed of sound [2] | Structure (SMILES)
1 | 1528.9 ± 1.1 m/s |  | O [water]
2 |  | 1528.9 ± 1.1 m/s | O [water] + O=C(O)CC(O)(CC(=O)O)C(=O)O
